Tested on: Staphylococcus aureus
Assay: Antibacterial activity against methicillin-resistant Staphylococcus aureus harboring 41.7-kilobase conjugative staphylococcal multiresistance plasmid pPR9 conferring high-level mupirocin resistance
Type: functional

C/C(=C\C(=O)OCCCCCCCCC(=O)O)C[C@@H]1OC[C@H](C[C@@H]2O[C@H]2[C@@H](C)[C@H](C)O)[C@@H](O)[C@H]1O [MUPIROCIN]
MIC: ≥ 1020 µg/mL
